# Data taken from patent US11040981B2, “Pyrrolotriazine compounds and methods of inhibiting TAM kinases” (Syros Pharmaceuticals, Inc., priority 2017, dated 2021).
# Key:
# [1] = target: T1, MERTK (Homo sapiens, UniProt Q12866); test: TR-FRET kinase activity assay, MERTK; type: biochemical; conditions: for IC50: TR-FRET activity assay, ATP at Km, 60 minutes, read-out: Mer IC50
# T1 sequence (Q12866 21-999): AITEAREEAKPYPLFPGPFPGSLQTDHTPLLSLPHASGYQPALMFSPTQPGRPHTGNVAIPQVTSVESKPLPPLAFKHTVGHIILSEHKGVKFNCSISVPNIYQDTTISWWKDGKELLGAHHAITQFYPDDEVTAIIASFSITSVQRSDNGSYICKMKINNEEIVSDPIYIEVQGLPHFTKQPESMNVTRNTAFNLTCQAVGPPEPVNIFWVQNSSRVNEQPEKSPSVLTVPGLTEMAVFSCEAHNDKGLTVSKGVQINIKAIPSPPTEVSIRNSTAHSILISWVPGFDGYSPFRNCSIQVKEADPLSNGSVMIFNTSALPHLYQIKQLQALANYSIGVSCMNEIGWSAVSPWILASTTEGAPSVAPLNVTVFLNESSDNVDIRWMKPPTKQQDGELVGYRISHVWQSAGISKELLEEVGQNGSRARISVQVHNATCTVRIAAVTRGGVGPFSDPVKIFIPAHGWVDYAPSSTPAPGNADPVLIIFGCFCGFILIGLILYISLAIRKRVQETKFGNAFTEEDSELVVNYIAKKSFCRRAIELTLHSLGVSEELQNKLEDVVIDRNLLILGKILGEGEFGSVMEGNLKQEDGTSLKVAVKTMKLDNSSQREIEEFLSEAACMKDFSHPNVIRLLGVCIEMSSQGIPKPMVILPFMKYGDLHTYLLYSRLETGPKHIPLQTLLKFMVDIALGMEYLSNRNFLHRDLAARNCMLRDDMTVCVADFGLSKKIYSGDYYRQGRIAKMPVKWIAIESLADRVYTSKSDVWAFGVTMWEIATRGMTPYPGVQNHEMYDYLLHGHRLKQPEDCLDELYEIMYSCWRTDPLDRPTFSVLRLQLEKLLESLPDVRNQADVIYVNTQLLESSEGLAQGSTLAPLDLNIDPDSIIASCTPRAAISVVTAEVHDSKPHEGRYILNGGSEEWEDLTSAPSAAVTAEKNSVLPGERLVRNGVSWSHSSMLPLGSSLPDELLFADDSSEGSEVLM
# How it was run: (§1)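 Inhibition is measured as loss of phospho-peptide formation: kinase, fluorescent tyrosine peptide and compound are combined, ATP is added at Km, and the reaction proceeds 60 min at RT in pH 7.5 HEPES buffer. An EDTA stop and Eu-labelled phospho-specific antibody allow TR-FRET detection for IC50 fitting.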
# [2] = target: T2, FLT3 (Homo sapiens, UniProt P36888); test: TR-FRET kinase activity assay, FLT3; type: biochemical; conditions: ATP at Km, 60 minutes
# T2 sequence (P36888 27-993): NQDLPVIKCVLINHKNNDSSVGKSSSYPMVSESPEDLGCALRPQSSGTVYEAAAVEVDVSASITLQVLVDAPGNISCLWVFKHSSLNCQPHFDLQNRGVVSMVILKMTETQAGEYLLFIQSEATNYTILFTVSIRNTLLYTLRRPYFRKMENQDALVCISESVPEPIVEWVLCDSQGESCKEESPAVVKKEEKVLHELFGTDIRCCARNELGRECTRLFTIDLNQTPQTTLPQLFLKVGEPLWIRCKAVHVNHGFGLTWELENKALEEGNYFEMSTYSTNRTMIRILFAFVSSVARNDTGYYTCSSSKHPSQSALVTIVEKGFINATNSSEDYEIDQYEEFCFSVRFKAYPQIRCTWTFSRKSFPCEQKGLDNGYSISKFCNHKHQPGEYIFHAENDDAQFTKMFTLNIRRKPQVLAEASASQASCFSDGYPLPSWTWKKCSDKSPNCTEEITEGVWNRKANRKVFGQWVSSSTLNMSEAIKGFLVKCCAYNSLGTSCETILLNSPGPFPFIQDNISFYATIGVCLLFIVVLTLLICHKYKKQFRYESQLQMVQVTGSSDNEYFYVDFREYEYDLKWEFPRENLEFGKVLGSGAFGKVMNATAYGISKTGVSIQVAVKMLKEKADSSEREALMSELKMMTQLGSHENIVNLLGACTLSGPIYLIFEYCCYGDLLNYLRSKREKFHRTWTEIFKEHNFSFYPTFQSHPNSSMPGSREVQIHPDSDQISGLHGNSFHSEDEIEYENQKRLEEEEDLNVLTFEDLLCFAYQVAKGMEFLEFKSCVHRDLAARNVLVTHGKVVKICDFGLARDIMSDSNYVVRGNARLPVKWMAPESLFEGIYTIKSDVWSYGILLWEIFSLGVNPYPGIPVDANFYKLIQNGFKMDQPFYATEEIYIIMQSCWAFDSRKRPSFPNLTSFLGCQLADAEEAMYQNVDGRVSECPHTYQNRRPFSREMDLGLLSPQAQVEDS
# How it was run: as §1
# [3] = ratio calculated as FLT3 IC50/Mer IC50
# [4] = ratio of Mer to FLT3: FLT3 IC50/Mer IC50
IC50 [1] [nM],"FLT3/Mer ratio (FLT3 IC50/Mer IC50) [1, 3]",IC50 [2] [nM],"FLT3/Mer ratio (FLT3 IC50/Mer IC50) [1, 4]",SMILES
≤ 100,+++ (“+++” represents a ratio of >100),1000 to 10000,–,COC[C@H](C)Nc1ncc2c(-c3cnn(C(C)(C)c4nnc(C(F)F)o4)c3)cc([C@H]3CC[C@H](O)CC3)n2n1 [Compound 599]
≤ 100,+++ (“+++” represents a ratio of >100),100 to 1000,–,[2H]C([2H])([2H])OCC(C)Nc1ncc2c(-c3ccnc(N4CCOCC4)c3)cc(C3CCC(O)CC3)n2n1 (stereo not drawn) [Compound 629]
≤ 100,+++ (“+++” represents a ratio of >100),100 to 1000,–,COC[C@H](C)Nc1ncc2c(-c3ccnc(C(C)(C)O)c3)cc([C@H]3CC[C@H](O)CC3)n2n1 [Compound 619]
≤ 100,–,1000 to 10000,+++ (“+++” represents a ratio of >100),CNC(=O)c1ccc(-c2cc([C@H]3CC[C@H](O)CC3)n3nc(N[C@@H](C)COC)ncc23)cn1 [Compound 147]
≤ 100,+++ (“+++” represents a ratio of >100),100 to 1000,–,C[C@@H](COC(F)F)Nc1ncc2c(-c3ccnc(N4CCO[C@@H](C(C)(C)O)C4)c3)cc([C@H]3CC[C@H](O)CC3)n2n1 [Compound 597]
≤ 100,–,100 to 1000,+++ (“+++” represents a ratio of >100),COCC(C)Nc1ncc2c(-c3cccc(C(C)N4CCCC4)c3)cc(C3CCC(O)CC3)n2n1 (stereo not drawn) [Compound 158]
≤ 100,–,100 to 1000,+++ (“+++” represents a ratio of >100),COC[C@H](C)Nc1ncc2c(-c3cccc(CN4CCCC4)c3)cc([C@H]3CC[C@H](O)CC3)n2n1 [Compound 179]

# More lines, now with the values behind:
SMILES,IC50 [1] [nM],"FLT3/Mer ratio (FLT3 IC50/Mer IC50) [1, 3]",IC50 [2] [nM],"FLT3/Mer ratio (FLT3 IC50/Mer IC50) [1, 4]"
COC[C@H](C)Nc1ncc2c(-c3cnn(C(C)(C)c4nnco4)c3)cc([C@H]3CC[C@H](O)CC3)n2n1 [Compound 604],≤ 100,+++ (“+++” represents a ratio of >100),1000 to 10000,–
COCC(C)Nc1ncc2c(-c3ccc(C(C)N4CCOCC4)cc3)cc(C3CCC(O)CC3)n2n1 (mixture of isomers) [Compound 180],≤ 100,–,100 to 1000,++ (“++” represents a ratio of between 10 and 100)
"COC[C@H](C)N(C)c1ncc2c(-c3ccnc(C)c3)cc([C@H]3CC[C@H](O)CC3)n2n1 [Compound 175, (trans)-4-(2-(((S)-1-methoxypropan-2-yl)(methyl)amino)-5-(2-methylpyridin-4-yl)pyrrolo[2,1-f][1,2,4]triazin-7-yl)cyclohexanol]",100 to 1000,–,1000 to 10000,++ (“++” represents a ratio of between 10 and 100)
COC[C@H](C)Nc1ncc2c([C@H]3CC[C@H](C(=O)N4CCN(C)CC4)CC3)cc([C@H]3CC[C@H](O)CC3)n2n1 [Compound 606],≤ 100,+++ (“+++” represents a ratio of >100),1000 to 10000,–
COC[C@H](C)Nc1ncc2c(-c3cnn(CC(C)C)c3)cc([C@H]3CC[C@H](O)CC3)n2n1 [Compound 167],≤ 100,–,100 to 1000,+++ (“+++” represents a ratio of >100)
COC[C@H](C)Nc1ncc2c(-c3cnn(Cc4nnc(C)s4)c3)cc([C@H]3CC[C@H](O)CC3)n2n1 [Compound 596],≤ 100,+++ (“+++” represents a ratio of >100),100 to 1000,–
"COC[C@H](C)Nc1ncc2c(-c3ccc(CN4CCOCC4)cc3)cc([C@H]3CC[C@@H](O)CC3)n2n1 [Compound 163, (cis)-4-(2-(((S)-1-methoxypropan-2-yl)amino)-5-(4-(morpholinomethyl)phenyl)pyrrolo[2,1-f][1,2,4]triazin-7-yl)cyclohexanol]",≤ 100,–,100 to 1000,++ (“++” represents a ratio of between 10 and 100)
COC[C@H](C)Nc1ncc2c(N3CCCC3=O)cc([C@H]3CC[C@H](O)CC3)n2n1 [Compound 177],≤ 100,–,1000 to 10000,+++ (“+++” represents a ratio of >100)
COC[C@H](C)Nc1ncc2c(-c3cnn(CCN4CCOCC4)c3)cc([C@H]3CC[C@H](O)CC3)n2n1 [Compound 153],≤ 100,–,1000 to 10000,+++ (“+++” represents a ratio of >100)
COC[C@H](C)Nc1ncc2c(-c3cnn(C(C)(C)c4nnc(C(F)(F)F)o4)c3)cc([C@H]3CC[C@H](O)CC3)n2n1 [Compound 603],≤ 100,+++ (“+++” represents a ratio of >100),1000 to 10000,–
COC[C@H](C)Nc1ncc2c(-c3cnn(C)c3)cc([C@H]3CC[C@H](O)CC3)n2n1 [Compound 152],≤ 100,–,100 to 1000,+++ (“+++” represents a ratio of >100)
COC[C@H](C)Nc1ncc2c(-c3ccc(C4(N5CCOCC5)CC4)cc3)cc([C@H]3CC[C@H](O)CC3)n2n1 [Compound 184],≤ 100,–,100 to 1000,++ (“++” represents a ratio of between 10 and 100)
COC[C@H](C)Nc1ncc2c(-c3cnn(C(C)(C)c4nnc([C@@H]5CCCO5)o4)c3)cc([C@H]3CC[C@H](O)CC3)n2n1 [Compound 601],≤ 100,+++ (“+++” represents a ratio of >100),1000 to 10000,–
COC[C@H](C)Nc1ncc2c(-c3cnn(C4COC4)c3)cc([C@H]3CC[C@@](O)(C(C)C)CC3)n2n1 [Compound 618],≤ 100,+++ (“+++” represents a ratio of >100),100 to 1000,–
COCC(C)Nc1ncc2c(-c3ccc(C(C)N4CCOCC4)cc3)cc(C3CCC(O)CC3)n2n1 (stereo not drawn) [Compound 182],≤ 100,–,≤ 100,++ (“++” represents a ratio of between 10 and 100)
